For 51 compounds, IC50 results are on record in patent publication US20080119515A1, “Heterocyclic Kinase Inhibitors: Methods of Use and Synthesis” (priority 2003, published 2008).

pIC50: −log10 of the molar value. A value given as a limit tells only on which side of the number the result lay.

The assay has as its target T1, ZAP-70 (Homo sapiens, UniProt P43403).
T1 sequence (P43403 1-619): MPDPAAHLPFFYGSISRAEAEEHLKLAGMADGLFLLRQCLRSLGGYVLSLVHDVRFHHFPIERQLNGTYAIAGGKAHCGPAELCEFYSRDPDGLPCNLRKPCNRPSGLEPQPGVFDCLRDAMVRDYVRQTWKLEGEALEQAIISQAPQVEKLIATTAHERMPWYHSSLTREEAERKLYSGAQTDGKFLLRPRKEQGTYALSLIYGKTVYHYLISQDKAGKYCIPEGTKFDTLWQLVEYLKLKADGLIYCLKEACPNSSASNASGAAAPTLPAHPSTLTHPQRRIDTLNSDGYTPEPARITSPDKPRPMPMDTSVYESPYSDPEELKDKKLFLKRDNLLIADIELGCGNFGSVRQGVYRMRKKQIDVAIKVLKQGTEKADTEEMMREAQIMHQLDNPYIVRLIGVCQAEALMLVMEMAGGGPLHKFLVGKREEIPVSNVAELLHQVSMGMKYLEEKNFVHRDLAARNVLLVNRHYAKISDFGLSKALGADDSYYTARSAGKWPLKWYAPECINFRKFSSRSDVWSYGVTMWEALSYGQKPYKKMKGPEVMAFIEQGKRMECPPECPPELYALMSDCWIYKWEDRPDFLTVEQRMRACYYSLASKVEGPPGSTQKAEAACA
Kind of assay: DELFIA assay (ZAP-70 kinase, phosphorylation of biotinylated poly(glu,tyr)). The format is biochemical. The note with it: ZAP-70 DELFIA, class symbols; read-out: Activity (IC50 in vitro). As to the method:
Before initiation of kinase reactions, compounds were pre-incubated with ZAP-70. Pre-incubation reactions contained 62.5 mM Mops pH 7.0, 12.5 mM MgCl2, 12.5% glycerol, 3.1 nM ZAP-70, 62.5 nM biotinylated poly(glu,Tyr), 0.1 mg/ml BSA, 6.25% DMSO and […] compound in a total volume of […]. After a 10 minute room temperature incubation, 10 ml of 5 mM ATP was added to start the reaction. Reactions were incubated at room temperature for 30 minutes then terminated by addition of 5 ml 500 mM EDTA. The amount of phosphate transferred to biotinylated poly(glu,tyr) was measured using the Dissociation Enhanced Lanthanide Fluorescence Immuno-assay (DELFIA) from Perkin Elmer according to manufacturers protocol. Briefly, biotinylated […] was captured on streptavidin coated plates, washed twice, then incubated with Europium labeled-anti-phosphotyrosine antibody. Free antibody was removed with six washes, Europium was dissociated from the antibody, and Europium fluorescence was measured at using an excitation wavelength of 340 nm and an emission wavelength of 615 nm.

Consider `CC(CNc1cc(C(=O)N2CCC[C@H]2CN2CCCC2)c2cc(-c3ccc4c(c3)OCO4)ccc2n1)c1ccccc1` (stereo partly drawn) [Compound 54], for which the pIC50 (in general, the IC50 on a negative log10 scale, so that one unit is a factor of ten) is above 6.00.

For `O=C(c1cc(NCC(O)c2ccccc2)nc2ccc(-c3ccc4c(c3)OCO4)cc12)N1CCC[C@H]1CN1CCCC1` (stereo partly drawn) [Compound 55], the pIC50 is above 6.00.

Turning to `O=C(c1cc(Nc2ccc3ncsc3c2)nc2ccc(-c3ccc4c(c3)OCO4)cc12)N1CCC[C@H]1CN1CCCC1` [Compound 56], the pIC50 was above 6.00.

For `O=C(c1cc(Nc2ccc3cn[nH]c3c2)nc2ccc(-c3ccc4c(c3)OCO4)cc12)N1CCC[C@H]1CN1CCCC1` [Compound 57], the pIC50 was above 6.00.

Take `CC(=O)N1CCN(c2cc(C(=O)N3CCC[C@H]3CN3CCCC3)c3cc(-c4ccc5c(c4)OCO5)ccc3n2)CC1` [Compound 58]: the pIC50 is 5.00 to 6.00.

As for `CN(C)c1cc(C(=O)N2CCC[C@H]2CN2CCCC2)c2cc(-c3ccc4c(c3)OCO4)ccc2n1` [Compound 59], the pIC50 was 5.00 to 6.00.

`CN1CCC(N(C)c2cc(C(=O)N3CCC[C@H]3CN3CCCC3)c3cc(-c4ccc5c(c4)OCO5)ccc3n2)CC1` [Compound 60]: the pIC50 was above 6.00.

For `CN1CCN(c2cc(C(=O)N3CCC[C@H]3CN3CCCC3)c3cc(-c4ccc5c(c4)OCO5)ccc3n2)CC1` [Compound 61], the pIC50 is 5.00 to 6.00.

For `O=C(c1cc(N2CCOCC2)nc2ccc(-c3ccc4c(c3)OCO4)cc12)N1CCC[C@H]1CN1CCCC1` [Compound 62], the pIC50 was 5.00 to 6.00.

Turning to `O=C(c1cc(N2CCCC2)nc2ccc(-c3ccc4c(c3)OCO4)cc12)N1CCC[C@H]1CN1CCCC1` [Compound 63], the pIC50 was 5.00 to 6.00.

With `O=C(c1cc(N2CCC(N3CCCC3)CC2)nc2ccc(-c3ccc4c(c3)OCO4)cc12)N1CCC[C@H]1CN1CCCC1` [Compound 64], the pIC50 is 5.00 to 6.00.

For `O=C(c1cc(N2CCc3ccccc3C2)nc2ccc(-c3ccc4c(c3)OCO4)cc12)N1CCC[C@H]1CN1CCCC1` [Compound 65], the pIC50 was above 6.00.

Turning to `CN(CCC#N)c1cc(C(=O)N2CCC[C@H]2CN2CCCC2)c2cc(-c3ccc4c(c3)OCO4)ccc2n1` [Compound 66], the pIC50 is 5.00 to 6.00.

`CN(C)CCN(C)c1cc(C(=O)N2CCC[C@H]2CN2CCCC2)c2cc(-c3ccc4c(c3)OCO4)ccc2n1` [Compound 67]: the pIC50 is below 5.00.

`CCN(Cc1ccccc1)c1cc(C(=O)N2CCC[C@H]2CN2CCCC2)c2cc(-c3ccc4c(c3)OCO4)ccc2n1` [Compound 68]: the pIC50 was above 6.00.

For `CC(=O)N[C@H]1CCN(c2cc(C(=O)N3CCC[C@H]3CN3CCCC3)c3cc(-c4ccc5c(c4)OCO5)ccc3n2)C1` [Compound 69], the pIC50 is below 5.00.

Consider `CN(c1cc(C(=O)N2CCC[C@H]2CN2CCCC2)c2cc(-c3ccc4c(c3)OCO4)ccc2n1)C1CCCCC1` [Compound 70], for which the pIC50 is above 6.00.

As for `CC(=O)NCCNc1cc(C(=O)N2CCC[C@H]2CN2CCCC2)c2cc(-c3ccc4c(c3)OCO4)ccc2n1` [Compound 71], the pIC50 is below 5.00.

In the case of `CCN(CCOC)c1cc(C(=O)N2CCC[C@H]2CN2CCCC2)c2cc(-c3ccc4c(c3)OCO4)ccc2n1` [Compound 72], the pIC50 is 5.00 to 6.00.

Regarding `COCCN1CCN(c2cc(C(=O)N3CCC[C@H]3CN3CCCC3)c3cc(-c4ccc5c(c4)OCO5)ccc3n2)CC1` [Compound 73], the pIC50 was 5.00 to 6.00.

With `CN(CCO)c1cc(C(=O)N2CCC[C@H]2CN2CCCC2)c2cc(-c3ccc4c(c3)OCO4)ccc2n1` [Compound 74], the pIC50 is 5.00 to 6.00.

`CN(C)[C@@H]1CCN(c2cc(C(=O)N3CCC[C@H]3CN3CCCC3)c3cc(-c4ccc5c(c4)OCO5)ccc3n2)C1` [Compound 75]: the pIC50 was 5.00 to 6.00.

With `O=C(c1cc(N(CCO)Cc2ccccc2)nc2ccc(-c3ccc4c(c3)OCO4)cc12)N1CCC[C@H]1CN1CCCC1` [Compound 76], the pIC50 was above 6.00.

Turning to `CN(Cc1ccc(Cl)c(Cl)c1)c1cc(C(=O)N2CCC[C@H]2CN2CCCC2)c2cc(-c3ccc4c(c3)OCO4)ccc2n1` [Compound 77], the pIC50 was above 6.00.

Take `CN(c1ccccn1)c1cc(C(=O)N2CCC[C@H]2CN2CCCC2)c2cc(-c3ccc4c(c3)OCO4)ccc2n1` [Compound 78]: the pIC50 was 5.00 to 6.00.

Regarding `O=C(c1cc(N2CCN(C3CCCC3)CC2)nc2ccc(-c3ccc4c(c3)OCO4)cc12)N1CCC[C@H]1CN1CCCC1` [Compound 79], the pIC50 is 5.00 to 6.00.

For `O=C(c1cc(NCc2ccccc2)nc2ccc(-c3ccc4c(c3)OCO4)cc12)N1CCC[C@H]1CO` [Compound 80], the pIC50 was below 5.00.

Consider `CCN(CC)C[C@@H]1CCCN1C(=O)c1cc(NCc2ccccc2)nc2ccc(-c3ccc4c(c3)OCO4)cc12` [Compound 81], for which the pIC50 is 5.00 to 6.00.

For `O=C(c1cc(NCc2ccccc2)nc2ccc(-c3ccc4c(c3)OCO4)cc12)N1CCC[C@H]1CN1CCCCC1` [Compound 82], the pIC50 is 5.00 to 6.00.

For `O=C(c1cc(NCc2ccccc2)nc2ccc(-c3ccc4c(c3)OCO4)cc12)N1CCC[C@H]1CN1CCOCC1` [Compound 83], the pIC50 is 5.00 to 6.00.

Consider `CC(C)N(C)C[C@@H]1CCCN1C(=O)c1cc(NCc2ccccc2)nc2ccc(-c3ccc4c(c3)OCO4)cc12` [Compound 84], for which the pIC50 is below 5.00.

Regarding `O=C(Nc1ccc2cn[nH]c2c1)c1cc(NCc2ccccc2)nc2ccc(-c3ccc4c(c3)OCO4)cc12` [Compound 85], the pIC50 is 5.00 to 6.00.

On to `O=C(Nc1ccc2[nH]ncc2c1)c1cc(NCc2ccccc2)nc2ccc(-c3ccc4c(c3)OCO4)cc12` [Compound 86], for which the pIC50 is 5.00 to 6.00.

`O=C(Nc1ccc2cn[nH]c2c1)c1cc(NCc2ccc(C(F)(F)F)cc2)nc2ccc(-c3ccc4c(c3)OCO4)cc12` [Compound 87]: the negative logarithm of the IC50 (pIC50) is below 5.00.

For `O=C(Nc1ccc2[nH]ncc2c1)c1cc(NCc2ccc(C(F)(F)F)cc2)nc2ccc(-c3ccc4c(c3)OCO4)cc12` [Compound 88], the pIC50 was below 5.00.

As to `O=C(c1cc(N2CCC[C@H]2CN2CCCC2)nc2ccc(-c3ccc4c(c3)OCO4)cc12)N1CCC[C@H]1CN1CCCC1` [Compound 89], the pIC50 was 5.00 to 6.00.

Take `O=C(c1cc(N2CCC(O)CC2)nc2ccc(-c3ccc4c(c3)OCO4)cc12)N1CCC[C@H]1CN1CCCC1` [Compound 90]: the pIC50 was 5.00 to 6.00.

As to `O=C(c1cc(N2CCC[C@@H]2CO)nc2ccc(-c3ccc4c(c3)OCO4)cc12)N1CCC[C@H]1CN1CCCC1` [Compound 91], the pIC50 was above 6.00.

As to `O=C(c1cc(N2CCCc3ccccc32)nc2ccc(-c3ccc4c(c3)OCO4)cc12)N1CCC[C@H]1CN1CCCC1` [Compound 92], the pIC50 was above 6.00.

`Clc1cc(CN2CCC[C@H]2CN2CCCC2)c2cc(-c3ccc4c(c3)OCO4)ccc2n1` [Compound 93]: the pIC50 is below 5.00.

In the case of `FC(F)(F)c1ccc(CNc2cc(CN3CCC[C@H]3CN3CCCC3)c3cc(-c4ccc5c(c4)OCO5)ccc3n2)cc1` [Compound 94], the pIC50 is 5.00 to 6.00.

On to `O=C(c1cc(-c2ccc(F)c(Cl)c2)nc2ccc(-c3ccc(F)c(Cl)c3)cc12)N1CCC[C@H]1CN1CCCC1` [Compound 95], for which the pIC50 is 5.00 to 6.00.

For the compound `N#Cc1cccc(-c2ccc3nc(-c4cccc(C#N)c4)cc(C(=O)N4CCC[C@H]4CN4CCCC4)c3c2)c1` [Compound 96], the pIC50 was 5.00 to 6.00.

Consider `O=C(c1cc(-c2ccc(Cl)c(Cl)c2)nc2ccc(-c3ccc(Cl)c(Cl)c3)cc12)N1CCC[C@H]1CN1CCCC1` [Compound 97], for which the pIC50 is 5.00 to 6.00.

Take `O=C(c1cc(OCc2ccc(C(F)(F)F)cc2)nc2ccc(-c3ccc4c(c3)OCO4)cc12)N1CCC[C@H]1CN1CCCC1` [Compound 98]: the pIC50 is above 6.00.

`O=C(c1cc(OCc2ccc(Cl)cc2)nc2ccc(-c3ccc4c(c3)OCO4)cc12)N1CCC[C@H]1CN1CCCC1` [Compound 99]: the pIC50 was above 6.00.

For `Clc1cc(N2CCC[C@H]2CN2CCCC2)c2cc(-c3ccc4c(c3)OCO4)ccc2n1` [Compound 100], the pIC50 is below 5.00.

Consider `Clc1cc(N2CCC[C@H]2CN2CCCC2)nc2ccc(-c3ccc4c(c3)OCO4)cc12` [Compound 101], for which the pIC50 was 5.00 to 6.00.

With `O=C(Nc1cc(C(=O)N2CCC[C@H]2CN2CCCC2)c2cc(-c3ccc4c(c3)OCO4)ccc2n1)c1ccc(C(F)(F)F)cc1` [Compound 102], the pIC50 was 5.00 to 6.00.

Consider `FC(F)(F)c1ccc(CNc2cc(N3CCC[C@H]3CN3CCCC3)c3cc(-c4ccc5c(c4)OCO5)ccc3n2)cc1` [Compound 103], for which the pIC50 was 5.00 to 6.00.

Turning to `FC(F)(F)c1ccc(CNc2cc(N3CCC[C@H]3CN3CCCC3)nc3ccc(-c4ccc5c(c4)OCO5)cc23)cc1` [Compound 104], the pIC50 is 5.00 to 6.00.
